{
  "source": "patent US20120289492A1",
  "about": "“METHODS OF TREATING MITOCHONDRIAL DISORDERS USING METALLOPORPHYRINS” (priority 2009, published 2012)",
  "key": {"[1]": {"tested_on": "kainate-induced epileptogenesis in rats", "experiment": "Kainate-induced chronic epilepsy development (rat model of temporal lobe epilepsy)", "type": "in vivo", "experimental": "The rat model of temporal lobe epilepsy is initiated by a single injection of a chemoconvulasant agent which results in spontaneous epileptic seizure arise several days to weeks thereafter. Groups of rats administered vehicle, kainate (a chemoconvulsant used to initiate injury), kainate+AEOL11207 and AEOL11207 were monitored 6 weeks for behavioral seizures and indices of oxidative stress (GSH/GSSG, CoASH/CoASSG). AEOL11207 was administered at an arbitrary dose of 5 mg/kg, s.c. daily beginning 6 hr after injection of kainate (11 mg/kg). All of the rats in both groups experienced SE after kainate injection, and there was no difference in any of the characteristics of SE between the groups. […] The time to develop chronic epilepsy (latency to chronic epilepsy), spontaneous seizure frequency, severity and duration was determined.\nIn another exemplary experiment, pharmacological removal of ROS was examined for its inhibition on kainate-induced epileptogenesis. A pilot was performed in which groups of rats administered vehicle (n=4), kainate (n=6), kainate+AEOL11207(n=6) and AEOL11207 (n=4) were monitored 6 weeks for behavioral seizures (Table 1) and indices of oxidative stress (GSH/GSSG, CoASH/CoASSG) (FIG. 6).\nAEOL11207 was administered at a dose of 5 mg/kg, s.c. daily beginning 6 hr after injection of kainate ([…]). All of the rats in both groups experienced SE after kainate injection, and there was no difference in any of the characteristics of SE between the groups. […] The time to develop chronic epilepsy (latency to chronic epilepsy), spontaneous seizure frequency, severity and duration was determined as previously described. […] None of the rats in the control or AEOL11207 alone groups developed seizures. […] FIG. 6 and Table 1 illustrate the effect of AEOL11207 on kainate-induced chronic epilepsy development (n=6/group) and oxidative stress (n=4-6 per group)."}, "[2]": {"tested_on": "forebrain of Sod2−/− mice", "experiment": "Mitochondrial oxidative stress and bioenergetic indices in brain of Sod2−/− mice", "type": "in vivo"}, "[3]": {"experiment": "Scavenging of reactive oxygen species in cell-free systems and isolated mitochondria", "type": "biochemical"}, "[4]": {"tested_on": "1-methyl-4-phenyl-1,2,3,6-tetrahydropyridine (MPTP) neurotoxicity", "conditions": "oral administration; cited from earlier work"}, "[5]": {"experiment": "Ames' test (mutagenicity)", "type": "cell-based", "source_text": "Safety profile: A prototypical metalloporphyrin (AEOL10150; FIG. 1) has completed phase 1 trials in amyotrophic lateral sclerosis patients. Extensive safety studies of this compound have been completed in mice, monkeys and rats. […] Safety studies for the structurally related compound, AEOL11207 need to be completed once its efficacy is established in animal studies."}, "[6]": {"tested_on": "parietal cortex of Sod2−/− mice", "experiment": "Histochemical analyses (H&E, Fluoro-Jade B) of Sod2−/− mouse brain", "type": "in vivo"}, "[7]": {"conditions": "mouse, in vivo, po, 15 mg/kg", "experimental": "In another exemplary method, oral administration of AEOL11207 was examined for efficiently to penetrate the blood-brain barrier (BBB) and brain mitochondria. To determine if AEOL11207 penetrates the BBB, preliminary studies were conducted in mice following injection of AEOL 11207. Mice were given a single dose of the compound (15 mg/kg, p.o. AEOL 11207) or vehicle (control). At various times after injection, mice were perfused and brains (cortex) and plasma were extracted with methanol and samples analyzed by an HPLC method as described previously. […] FIGS. 3A and 3B illustrate plasma and brain concentrations of AEOL11207 following s.c. or p.o. administration. […]\nFIGS. 3A-3B illustrate exemplary concentrations of AEOL11207 in the plasma (3A) and brains (3B) of the C57BL/6 mice at different times points after a single dose of AEOL11207 (15 mg/kg) administered by the s.c or p.o. route. […] FIG. 3C illustrates an exemplary chromatogram of AEOL 11207 levels measured by HPLC with UV detection at 450 nm in mitochondrial fractions of mouse forebrain 24 hr after AEOL11207 15 mg/kg s.c. as previously described. Recovery of AEOL11207 from mitochondrial samples was determined to be ˜98%. […]\nDetermination of metalloporphyrin levels AEOL11207 was measured by HPLC-UV following previously described methods (Liang, et al. (2007) J Neurosci 27, 4326-33)."}, "[8]": {"tested_on": "B6D2F2 Sod2−/− mice", "experiment": "Behavioral seizure evaluation and survival of Sod2−/− mice", "text": "The model utlizes cross-bred C57BL6XDBA2F2 (B6D2) mutant mice lacking manganese superoxide dismutase (MnSOD or Sod2), a critical mitochondrial antioxidant.\nChronic Video Monitoring and Seizure Scoring: Sod2−/− mice and wild type littermates aged P7-˜P21 are digitally recorded 8 hrs/day in a custom designed plexiglass cage using a Q-See QD14B video monitoring system connected to a recordable DVD. DVD recordings are saved and reviewed by a trained observer blind to genotype and/or treatment for scoring of seizure severity, duration, and frequency. Seizure severity will be rated using the following scale: 1=immobilization & staring, 2=head-nodding, occasional forelimb clonic and tonic activity, 3=continuous forelimb clonic and tonic activity, 4=generalized seizures with falling, running and jumping.\nThe mutant mice were monitored on a daily basis to get an accurate birth and death data. Pups were not culled or handled before P5 to avoid maternal rejection.\nMetalloporphyrin (AEOL11207) administration B6D2F1 Sod2−/− mice and their wild-type littermates (control mice) were treated with AEOL11207 (5 mg/kg) or vehicle by subcutaneous (s.c.) injection daily starting at 5 days of age until death or being sacrificed. AEOL11207 was dissolved in dimethyl sulfoxide (DMSO) and diluted with sterilized phosphate buffered saline (PBS) to achieve the desired final concentration (1% DMSO). The control animals were injected with sterilized PBS containing 1% DMSO. The animals were divided into four different groups: 1) control mice +vehicle; 2) B6D2F1 Sod2−/− mice+vehicle; 3) control mice +AEOL11207; 4) B6D2F1 Sod2−/− mice +AEOL11207. The treated and untreated mice were sacrificed at 15-16 days old for pathology and biochemistry assays or until death for survival and seize behavioral evaluation.\nDuring the weaning period (P15-P18) mice were recorded in the presence of their mothers, and individually thereafter. Video was digitally recorded (Panasonic DMR-ES 15) and stored on DVD-R′s for observation and quantification of seizure number, duration, frequency, and severity by an observer blind to treatments. Seizure severity was scored according to the following scale: 1=immobilization and staring, 2=head-nodding, shaking, 3=forelimb tonic/clonic activity, 4=continuous forelimb tonic/clonic activity with falling, running or jumping. Due to the presence of abnormal gait and posturing in Sod2^−/− mice, only spontaneous motor seizures with scores>3 were included for comparison between groups. The scoring and analysis was conducted by an investigator blinded to genotype and treatment.\nStatistical analyses Survival analysis was performed using the Kaplan-Meier method. […] P values less than 0.05 were considered significant."}, "[9]": {"conditions": "kainate rats, compared to controls"}, "[10]": {"conditions": "the 2 rats of the kainate+AEOL11207 group that developed epilepsy"}, "[11]": {"conditions": "forebrain mitochondrial fraction of Sod2−/− mice"}, "[12]": {"conditions": "Sod2−/− mice, 5 mg/kg s.c. daily from P5, vs vehicle, 5 mg/kg"}},
  "note": "“Also recorded” adds a separate entry of the source.",
  "data": [
    {"smiles": "COC(=O)c1c2nc(c(C(F)(F)F)c3ccc([n-]3)c(C(=O)OC)c3nc(c(C(F)(F)F)c4ccc1[n-]4)C=C3)C=C2.[Cl-].[Mn+3]", "note": "[AEOL11207]", "values": [
      {"measurement": "rats that developed seizures", "setting": "[1]; AEOL11207 alone group, no kainate", "value": "None"},
      {"measurement": "rats that developed chronic epilepsy during 6 weeks", "setting": "[1]; in comparison with two-thirds in the kainate group", "value": "one-third"},
      {"measurement": "Duration of seizures (sec.)", "setting": "[1]; kainate + 5 mg/kg s.c. daily, kainate alone 33.3 ± 1.9", "value": "28.3 ± 2.2*p < 0.05 sec."},
      {"measurement": "CoASH/CoASSG ratio", "setting": "[1]; [9]", "value": "significantly improved"},
      {"measurement": "GSH/GSSG ratio", "setting": "[1]; [9]", "value": "significantly improved"},
      {"measurement": "decrease of seizure duration", "setting": "[1]; [10]", "value": "~15", "unit": "%"},
      {"measurement": "number of seizures per animal", "setting": "[1]; [10]", "value": "no changes"},
      {"measurement": "depletion of ascorbate", "setting": "[2]; brains of Sod2−/− mice", "value": "significantly attenuated"},
      {"measurement": "depletion of glutathione", "setting": "[2]; brains of Sod2−/− mice", "value": "significantly attenuated"},
      {"measurement": "decrease in cysteine", "setting": "[2]; [11]", "value": "significantly attenuated"},
      {"measurement": "decrease in methionine", "setting": "[2]; [11]", "value": "significantly attenuated"},
      {"measurement": "increased CoASSG", "setting": "[2]; forebrain of Sod2−/− mice, 15-16 days old", "value": "significantly attenuated"},
      {"measurement": "decrease in glutamate transporter GLT-1 expression", "setting": "[2]; hippocampus of Sod2−/− mice, Western blot", "value": "significantly attenuated"},
      {"measurement": "scavenging of mitochondrial O2-, H2O2 and lipid peroxides", "setting": "[3]", "value": "catalytically scavenges"},
      {"measurement": "protection against MPTP neurotoxicity", "setting": "[4]", "value": "protected"},
      {"measurement": "mutagenicity, Ames' test", "setting": "[5]", "value": "negative"},
      {"measurement": "Histopathological damage including vacuole size and number", "setting": "[6]; H&E staining, Sod2−/− mice P15-16", "value": "decreased"},
      {"measurement": "neuronal degeneration (Fluoro-Jade B staining)", "setting": "[6]; compared to vehicle treatment", "value": "Significant protection"},
      {"measurement": "attenuation of Fluoro-Jade B relative fluorescence density", "setting": "[6]; parietal cortex of Sod2−/− mice, compared to vehicle treatment", "value": "~50", "unit": "%"},
      {"measurement": "estimated concentration in the brain", "setting": "[7]", "value": "within the protective range"},
      {"measurement": "Sod2−/− mice surviving beyond 15 days old", "setting": "[8]; 5 mg/kg daily, vehicle ~48%", "value": "all"},
      {"measurement": "Sod2−/− mice exhibiting spontaneous tonic-clonic seizures", "setting": "[8]; P15-P20, daily observation, all vehicle-treated mice", "value": 37, "unit": "%"},
      {"measurement": "frequency of spontaneous behavioral seizures", "setting": "[8]; [12]", "value": "significantly decreased; also recorded: decrease; also recorded: significantly attenuates"},
      {"measurement": "seizure severity", "setting": "[8]; [12]", "value": "but not seizure duration or severity; also recorded: no significant changes"},
      {"measurement": "total number of spontaneous behavioral seizures", "setting": "[8]; [12]", "value": "decrease; also recorded: significantly attenuates"},
      {"measurement": "average lifespan", "setting": "[8]; Sod2−/− mice, 5 mg/kg s.c. daily starting at 5 days of age, 5 mg/kg", "value": "20.33 ± 2.00", "unit": "days"},
      {"measurement": "average lifespan", "setting": "[8]; Sod2−/− mice, 5 mg/kg s.c. daily starting at 5 days of age, listed as AEOL 11207, 5 mg/kg", "value": "20.383 ± 0.43", "unit": "days"},
      {"measurement": "average lifespan", "setting": "[8]; Sod2−/− mice, daily treatment 2.5 mg/kg", "value": "no significant increase"},
      {"measurement": "behavioral seizure characteristics / seizure parameters", "setting": "[8]; Sod2−/− mice, s.c. from postnatal day 5", "value": "attenuates; also recorded: significantly attenuated; also recorded: ameliorates"}
    ]}
  ]
}
